Test results taken from a melting point compilation (Tetko et al.; mined from patent text by program, amines drawn as free bases though some values may be those of a salt).

Compound	melting point [°C]
S=C(S)CCc1ccccc1	57 to 59
N#Cc1ccc(-c2ccc(Cl)nn2)cc1	236 to 238
Cc1cc([N+](=O)[O-])c(NC(C)C)c([N+](=O)[O-])c1NC(C)C	96 to 97
CCOC(=O)Nc1cc(F)cc(CCCCC(=O)O)c1	136 to 137
O=C1SC(Cc2ccc(OCCn3ccc4cccnc43)cc2)C(=O)N1C(c1ccccc1)(c1ccccc1)c1ccccc1 (centres undefined)	168 to 169
O=S1(=O)c2cccc3cccc(c23)N1CCCN1CCN(c2nsc3ccccc23)CC1	172 to 173
CCCC(=O)c1cc2c(=O)c(C(=O)O)c[nH]c2cc1C	249 to 252
Cc1n[nH]c(C)c1CC1CC2c3cccc4[nH]cc(c34)CC2N(C)C1 (centres undefined)	> 300
CC(=O)Oc1ccc(CI)cc1C(OC(C)=O)OC(C)=O	117 to 120
Nc1ncnc2c1c(-c1ccc(Oc3ccccc3C=O)cc1)cn2C1CCOC1 (centres undefined)	185 to 187
COCCN1CCc2ccc(Nc3ncc(Cl)c(Nc4ccccc4S(=O)(=O)N4CCC(O)C4)n3)cc2CC1 (centres undefined)	120 to 128
COC(OC)C(=O)NCc1ccc(C)cc1	45.8
CCCCC1(CCCC)CS(=O)(=O)c2ccc(N(C)C)cc2C(c2ccc(OCC(=O)NCC(=O)O)cc2)C1O (centres undefined)	149 to 150
CC=C(NC(=O)CCC1CCCC1)C(=O)O	180 to 182
C=Cc1cc(C)cc(NC(C)=O)n1	140
Nc1ccc([C@@H](O)CNC[C@H]2CCc3cc(NS(=O)(=O)c4ccc(-n5nnn(CCCC6CCCCC6)c5=O)cc4)ccc3O2)cn1	94 to 95

The remaining lines, values ahead:

melting point [°C]	Compound
208 to 209	CCOC(=O)c1c(OC(=O)CCl)c2ccccc2c2nc3ccccc3nc12
215 to 217	O=c1[nH]c(=Cc2cccs2)c(=O)[nH]c1=Cc1ccc(OCc2ccccc2)cn1
115	O=Cc1ccnc2ccc(-c3ccccc3)cc12
202 to 204	CSC(C)(C(=O)O)c1ccc(N2C(=O)c3ccccc3C2=O)cc1 (centres undefined)
109 to 110	CN(C)CCC=C1c2ccccc2CCc2ccc(S(C)(=O)=O)cc21
104 to 105	Cc1oc(-c2ccccc2)nc1COc1ccccc1COc1cccc(CC(=O)O)c1
169	COc1ccc(Cl)cc1C(=O)NCCc1ccc(-c2ccc(O)cc2)cc1
214	O=C(NN=Cc1cccc2ccccc12)c1cc2ccccc2cc1O
